Laboratory results reported in paper PMC5218480 (PLoS ONE, 2017).

Tested on: MV-4-11 cells
Assay: Gene expression microarray analysis (Affymetrix PrimeView) and GSEA
Assay type: cell-based, human
Parameters: RFU PODN (11730768_x_at) / Fold change /veh PODN (11730768_x_at) / RFU LINC00158 (11744669_a_at) / Fold change /veh LINC00158 (11744669_a_at) / RFU DUSP10 (11751237_a_at) / Fold change /veh DUSP10 (11751237_a_at) / RFU ID3 (11757404_x_at) / Fold change /veh ID3 (11757404_x_at) / RFU PLEKHG5 (11737974_s_at) / Fold change /veh PLEKHG5 (11737974_s_at) / RFU LRRC4B (11730491_at) / Fold change /veh LRRC4B (11730491_at) / RFU GIMAP4 (11747438_a_at) / Fold change /veh GIMAP4 (11747438_a_at) / RFU KRT8 (11758183_x_at) / Fold change /veh KRT8 (11758183_x_at) / RFU CNN1 (11734310_a_at) / Fold change /veh CNN1 (11734310_a_at) / RFU VPS37D (11726825_at) / Fold change /veh VPS37D (11726825_at) / RFU C10orf10 (11716522_x_at) / Fold change /veh C10orf10 (11716522_x_at) / RFU KIR2DL2 /// KIR2DL4 /// KIR2DL5A /// KIR2DL5B /// KIR2DS1 /// KIR2DS2 /// KIR2DS3 /// KIR2DS4 /// KIR3DL3 /// KIR3DL3 /// KIR3DS1 (11738374_at) / Fold change /veh KIR2DL2 /// KIR2DL4 /// KIR2DL5A /// KIR2DL5B /// KIR2DS1 /// KIR2DS2 /// KIR2DS3 /// KIR2DS4 /// KIR3DL3 /// KIR3DL3 /// KIR3DS1 (11738374_at) / RFU C1QL1 (11718748_at) / Fold change /veh C1QL1 (11718748_at) / RFU TMPRSS4 (11747572_a_at) / Fold change /veh TMPRSS4 (11747572_a_at) / RFU HAMP (11756126_x_at) / Fold change /veh HAMP (11756126_x_at) / RFU RNFT2 (11725882_a_at) / Fold change /veh RNFT2 (11725882_a_at) / RFU NR4A2 (11747474_a_at) / Fold change /veh NR4A2 (11747474_a_at) / RFU ABCC12 (11746883_a_at) / Fold change /veh ABCC12 (11746883_a_at) / RFU TMEM136 (11760407_x_at) / Fold change /veh TMEM136 (11760407_x_at) / RFU CLDN22 /// WWC2 (11732394_at) / Fold change /veh CLDN22 /// WWC2 (11732394_at) / RFU HLA-DPB1 (11760878_x_at) / Fold change /veh HLA-DPB1 (11760878_x_at) / RFU SPINT1 (11716480_a_at) / Fold change /veh SPINT1 (11716480_a_at) / RFU GAP43 (11754022_s_at) / Fold change /veh GAP43 (11754022_s_at) / RFU A4GNT (11735810_at) / Fold change /veh A4GNT (11735810_at) / RFU PRB3 (11715151_x_at) / Fold change /veh PRB3 (11715151_x_at) / RFU TUBB4B (11761932_at) / Fold change /veh TUBB4B (11761932_at) / RFU CAPN14 (11732068_a_at) / Fold change /veh CAPN14 (11732068_a_at) / RFU TMCC2 (11721928_a_at) / Fold change /veh TMCC2 (11721928_a_at) / RFU IRGQ (11745062_a_at) / Fold change /veh IRGQ (11745062_a_at) / RFU FAM174B (11720279_a_at) / Fold change /veh FAM174B (11720279_a_at) / RFU TMPRSS4 (11748680_a_at) / Fold change /veh TMPRSS4 (11748680_a_at) / RFU FAM212B (11763350_a_at) / Fold change /veh FAM212B (11763350_a_at) / RFU PLEKHG5 (11743358_a_at) / Fold change /veh PLEKHG5 (11743358_a_at) / RFU ZSCAN30 (11745921_a_at) / Fold change /veh ZSCAN30 (11745921_a_at) / RFU CMKLR1 (11741424_a_at) / Fold change /veh CMKLR1 (11741424_a_at) / RFU LOC101060620 /// MAPK8IP1 (11723275_at) / Fold change /veh LOC101060620 /// MAPK8IP1 (11723275_at) / RFU SPTSSB (11747773_x_at) / Fold change /veh SPTSSB (11747773_x_at) / RFU PRSS12 (11739890_at) / Fold change /veh PRSS12 (11739890_at) / RFU BIN1 (11741810_x_at) / Fold change /veh BIN1 (11741810_x_at) / RFU WNT11 (11732464_a_at) / Fold change /veh WNT11 (11732464_a_at) / RFU C10orf10 (11716521_a_at) / Fold change /veh C10orf10 (11716521_a_at) / RFU C5orf56 (11738089_at) / Fold change /veh C5orf56 (11738089_at) / RFU CYB561 (11721691_x_at) / Fold change /veh CYB561 (11721691_x_at) / RFU ANKRD19P (11752326_a_at) / Fold change /veh ANKRD19P (11752326_a_at) / RFU OR2T12 /// OR2T33 /// OR2T8 (11738714_s_at) / Fold change /veh OR2T12 /// OR2T33 /// OR2T8 (11738714_s_at) / RFU VCAN (11748164_a_at) / Fold change /veh VCAN (11748164_a_at) / RFU JSRP1 (11732532_at) / Fold change /veh JSRP1 (11732532_at) / RFU KRTAP10-11 (11738290_x_at) / Fold change /veh KRTAP10-11 (11738290_x_at) / RFU MYO3A (11730013_a_at) / Fold change /veh MYO3A (11730013_a_at) / RFU EBF3 (11725865_a_at) / Fold change /veh EBF3 (11725865_a_at) / RFU CAMK2N1 (11719241_x_at) / Fold change /veh CAMK2N1 (11719241_x_at) / RFU C5orf56 (11738088_a_at) / Fold change /veh C5orf56 (11738088_a_at) / RFU OLFML3 (11715873_a_at) / Fold change /veh OLFML3 (11715873_a_at) / RFU LOC100653217 /// NTM (11731650_a_at) / Fold change /veh LOC100653217 /// NTM (11731650_a_at) / RFU MAPK11 (11762145_a_at) / Fold change /veh MAPK11 (11762145_a_at) / RFU FIZ1 (11724087_x_at) / Fold change /veh FIZ1 (11724087_x_at) / RFU OASL (11726364_x_at) / Fold change /veh OASL (11726364_x_at) / RFU SOX15 (11748057_x_at) / Fold change /veh SOX15 (11748057_x_at) / RFU CD79A (11719716_a_at) / Fold change /veh CD79A (11719716_a_at) / RFU HIST1H1D (11736915_at) / Fold change /veh HIST1H1D (11736915_at) / RFU CASKIN2 (11723855_a_at) / Fold change /veh CASKIN2 (11723855_a_at) / RFU LOC730098 (11760151_x_at) / Fold change /veh LOC730098 (11760151_x_at) / RFU OR4N2 (11742367_at) / Fold change /veh OR4N2 (11742367_at) / RFU PRRT2 (11749266_a_at) / Fold change /veh PRRT2 (11749266_a_at) / RFU SNX32 (11753110_a_at) / Fold change /veh SNX32 (11753110_a_at) / RFU CDHR5 (11726645_a_at) / Fold change /veh CDHR5 (11726645_a_at) / RFU RCAN1 (11760418_a_at) / Fold change /veh RCAN1 (11760418_a_at) / RFU FAM167A (11723789_a_at) / Fold change /veh FAM167A (11723789_a_at) / RFU FAM26E (11764081_at) / Fold change /veh FAM26E (11764081_at) / RFU ISYNA1 (11749810_s_at) / Fold change /veh ISYNA1 (11749810_s_at) / RFU ACY1 (11761880_at) / Fold change /veh ACY1 (11761880_at) / RFU 11764098_at / Fold change /veh 11764098_at / RFU SAMD14 (11745864_x_at) / Fold change /veh SAMD14 (11745864_x_at) / RFU NPB (11741838_a_at) / Fold change /veh NPB (11741838_a_at) / RFU TMPRSS6 (11731388_a_at) / Fold change /veh TMPRSS6 (11731388_a_at) / RFU KRTAP10-2 (11738614_at) / Fold change /veh KRTAP10-2 (11738614_at) / RFU ARHGAP8 /// PRR5-ARHGAP8 (11727945_x_at) / Fold change /veh ARHGAP8 /// PRR5-ARHGAP8 (11727945_x_at) / RFU KRTAP5-7 /// NADSYN1 (11734609_at) / Fold change /veh KRTAP5-7 /// NADSYN1 (11734609_at) / RFU RASL12 (11751679_a_at) / Fold change /veh RASL12 (11751679_a_at) / RFU CDKN2B (11736163_a_at) / Fold change /veh CDKN2B (11736163_a_at) / RFU PRF1 (11729649_at) / Fold change /veh PRF1 (11729649_at) / RFU, ZNF638 /// ZNF638-IT1 / Fold change vs veh, ZNF638 /// ZNF638-IT1 / RFU, PANK3 / Fold change vs veh, PANK3 / RFU, SH3YL1 / Fold change vs veh, SH3YL1 / RFU, ZEB2 / Fold change vs veh, ZEB2 / RFU, NRIP1 / Fold change vs veh, NRIP1 / RFU, PTTG1IP / Fold change vs veh, PTTG1IP / RFU, CAPN2 / Fold change vs veh, CAPN2 / RFU, MED14 / Fold change vs veh, MED14 / RFU, SNORA58 / Fold change vs veh, SNORA58 / RFU, C1orf63 / Fold change vs veh, C1orf63 / RFU, LRRFIP1 / Fold change vs veh, LRRFIP1 / RFU, NDUFAF7 / Fold change vs veh, NDUFAF7 / RFU, SLC12A2 / Fold change vs veh, SLC12A2 / RFU, IBTK / Fold change vs veh, IBTK / RFU, ESF1 / Fold change vs veh, ESF1 / Fold change vs veh, TMEM50B / RFU, TAOK1 / Fold change vs veh, TAOK1 / RFU, ACBD3 / Fold change vs veh, ACBD3 / RFU, TMA16 / Fold change vs veh, TMA16 / RFU, RWDD3 / Fold change vs veh, RWDD3 / RFU, BCAT1 / Fold change vs veh, BCAT1 / RFU, EDEM3 / Fold change vs veh, EDEM3 / RFU, TMEM33 / Fold change vs veh, TMEM33 / RFU, WDR75 / Fold change vs veh, WDR75 / RFU, AHCTF1 / Fold change vs veh, AHCTF1 / RFU, TFRC / Fold change vs veh, TFRC / RFU, ZDHHC17 / Fold change vs veh, ZDHHC17 / RFU, NOM1 / Fold change vs veh, NOM1 / RFU, ARL8B / Fold change vs veh, ARL8B / RFU, ZBTB11 / Fold change vs veh, ZBTB11 / RFU, TAMM41 / Fold change vs veh, TAMM41 / RFU, KIAA1704 /// LOC100996395 / Fold change vs veh, KIAA1704 /// LOC100996395 / RFU, ING1 / Fold change vs veh, ING1 / RFU, TRMT61B / Fold change vs veh, TRMT61B / RFU, FUBP3 / Fold change vs veh, FUBP3 / RFU, TP53 / Fold change vs veh, TP53 / RFU, TNKS2 / Fold change vs veh, TNKS2 / RFU, ZFP14 / Fold change vs veh, ZFP14 / RFU, ACTR2 / Fold change vs veh, ACTR2 / RFU, PPP3R1 / Fold change vs veh, PPP3R1 / RFU, PIK3R1 / Fold change vs veh, PIK3R1 / RFU, HNRNPA1 / Fold change vs veh, HNRNPA1 / RFU, RNF170 / Fold change vs veh, RNF170 / RFU, ZNF28 / Fold change vs veh, ZNF28 / RFU, RNGTT / Fold change vs veh, RNGTT / RFU, OGT / Fold change vs veh, OGT / RFU, BRD1 / Fold change vs veh, BRD1 / RFU, MARS / Fold change vs veh, MARS / RFU, ZNF655 / Fold change vs veh, ZNF655 / RFU, FAHD1 / Fold change vs veh, FAHD1 / RFU, BDP1 / Fold change vs veh, BDP1 / RFU, LRRCC1 / Fold change vs veh, LRRCC1 / RFU, ARID1A / Fold change vs veh, ARID1A / RFU, ZNF146 / Fold change vs veh, ZNF146 / RFU, ZNF330 / Fold change vs veh, ZNF330 / RFU, GPN3 / Fold change vs veh, GPN3 / RFU, C9orf123 / Fold change vs veh, C9orf123 / RFU, N4BP2L2 / Fold change vs veh, N4BP2L2 / RFU, ARFIP1 / Fold change vs veh, ARFIP1 / RFU, FAM179B / Fold change vs veh, FAM179B / RFU, BCL10 / Fold change vs veh, BCL10 / RFU, UHRF1BP1L / Fold change vs veh, UHRF1BP1L / RFU, BET1 / Fold change vs veh, BET1 / RFU, CNOT2 / Fold change vs veh, CNOT2 / RFU, ZNF268 / Fold change vs veh, ZNF268 / Fold change vs veh, ZNF507 / RFU, DGCR2 / Fold change vs veh, DGCR2 / RFU, WDSUB1 / Fold change vs veh, WDSUB1 / Fold change vs veh, HSP90B1 /// MIR3652 / RFU, ADSS / Fold change vs veh, ADSS / RFU, GK / Fold change vs veh, GK / RFU, ZNF148 / Fold change vs veh, ZNF148 / RFU, TAF9 / Fold change vs veh, TAF9 / RFU, SLC1A5 / Fold change vs veh, SLC1A5 / RFU, SLMO2 / Fold change vs veh, SLMO2 / RFU, ABCC4 / Fold change vs veh, ABCC4 / RFU, LOC101060439 /// RAP1B / Fold change vs veh, LOC101060439 /// RAP1B / RFU, RFX7 / Fold change vs veh, RFX7 / RFU, GTPBP10 / Fold change vs veh, GTPBP10 / RFU, CNEP1R1 / Fold change vs veh, CNEP1R1 / RFU, BIVM-ERCC5 /// ERCC5 / Fold change vs veh, BIVM-ERCC5 /// ERCC5 / RFU, ILF3 / Fold change vs veh, ILF3 / RFU 11762660_at / Fold change /veh 11762660_at / RFU VCAN (11757783_s_at) / Fold change /veh VCAN (11757783_s_at) / RFU DDX43 (11728927_at) / Fold change /veh DDX43 (11728927_at) / RFU KRT8 (11758188_x_at) / Fold change /veh KRT8 (11758188_x_at) / RFU NKD1 (11759106_at) / Fold change /veh NKD1 (11759106_at) / RFU SRD5A1 (11742802_a_at) / Fold change /veh SRD5A1 (11742802_a_at) / RFU TPSAB1 /// TPSB2 (11721975_s_at) / Fold change /veh TPSAB1 /// TPSB2 (11721975_s_at) / RFU GSTM3 (11746129_a_at) / Fold change /veh GSTM3 (11746129_a_at) / RFU IL23R (11737362_x_at) / Fold change /veh IL23R (11737362_x_at) / RFU TMEM51 (11727254_a_at) / Fold change /veh TMEM51 (11727254_a_at) / RFU PIWIL2 (11732686_x_at) / Fold change /veh PIWIL2 (11732686_x_at) / RFU ORM1 (11744905_x_at) / Fold change /veh ORM1 (11744905_x_at) / RFU CCDC152 (11743942_at) / Fold change /veh CCDC152 (11743942_at) / RFU ECM1 (11717891_a_at) / Fold change /veh ECM1 (11717891_a_at) / RFU IL23R (11748794_a_at) / Fold change /veh IL23R (11748794_a_at) / RFU TNFAIP8L3 (11732012_x_at) / Fold change /veh TNFAIP8L3 (11732012_x_at) / RFU MBOAT4 (11741988_at) / Fold change /veh MBOAT4 (11741988_at) / RFU 11764193_at / Fold change /veh 11764193_at / RFU TMEM53 (11763286_at) / Fold change /veh TMEM53 (11763286_at) / RFU MAGEB2 (11727129_at) / Fold change /veh MAGEB2 (11727129_at) / RFU TMEM200A (11744735_a_at) / Fold change /veh TMEM200A (11744735_a_at) / RFU CCDC152 (11751479_a_at) / Fold change /veh CCDC152 (11751479_a_at) / RFU FAM211A (11726209_a_at) / Fold change /veh FAM211A (11726209_a_at) / RFU RGS16 (11746705_a_at) / Fold change /veh RGS16 (11746705_a_at) / RFU VCAN (11755009_s_at) / Fold change /veh VCAN (11755009_s_at) / RFU RHOB (11743442_s_at) / Fold change /veh RHOB (11743442_s_at) / RFU RGS16 (11720943_a_at) / Fold change /veh RGS16 (11720943_a_at) / RFU RGS16 (11720944_at) / Fold change /veh RGS16 (11720944_at) / RFU, VPS4B / Fold change vs veh, VPS4B / RFU, CREB1 / Fold change vs veh, CREB1 / RFU, DNAJC13 / Fold change vs veh, DNAJC13 / RFU, GNAQ / Fold change vs veh, GNAQ / RFU, CDK5R1 / Fold change vs veh, CDK5R1 / RFU, ZRANB3 / Fold change vs veh, ZRANB3 / RFU, CUL4A / Fold change vs veh, CUL4A / RFU, CCNY / Fold change vs veh, CCNY / RFU, UFL1 / Fold change vs veh, UFL1 / RFU, COG3 / Fold change vs veh, COG3 / RFU, DIAPH2 / Fold change vs veh, DIAPH2 / RFU, SKA2 / Fold change vs veh, SKA2 / RFU, AFF3 / Fold change vs veh, AFF3 / RFU, LMF1 / Fold change vs veh, LMF1 / RFU, IPO11 / Fold change vs veh, IPO11 / RFU, DFFB / Fold change vs veh, DFFB / RFU, FOXP1 / Fold change vs veh, FOXP1 / RFU, CARD8 / Fold change vs veh, CARD8 / RFU, STRN3 / Fold change vs veh, STRN3 / RFU, ADK / Fold change vs veh, ADK / RFU, RASSF2 / Fold change vs veh, RASSF2 / RFU, WIPF1 / Fold change vs veh, WIPF1 / RFU, LARP1B / Fold change vs veh, LARP1B / RFU, RASA1 / Fold change vs veh, RASA1 / RFU, RB1 / Fold change vs veh, RB1 / RFU, PPFIA1 / Fold change vs veh, PPFIA1 / RFU, MAT2A / Fold change vs veh, MAT2A / RFU, CCT5 / Fold change vs veh, CCT5 / RFU, WDR92 / Fold change vs veh, WDR92 / RFU, CUX1 / Fold change vs veh, CUX1 / RFU, TTC7A / Fold change vs veh, TTC7A / RFU, TMEM135 / Fold change vs veh, TMEM135 / RFU, DEPTOR / Fold change vs veh, DEPTOR / RFU, CPM / Fold change vs veh, CPM / RFU, DNAJB6 / Fold change vs veh, DNAJB6 / RFU, CACNA2D3 / Fold change vs veh, CACNA2D3 / RFU, DTX4 / Fold change vs veh, DTX4 / RFU, TFCP2 / Fold change vs veh, TFCP2 / RFU, GMCL1 /// GMCL1P1 / Fold change vs veh, GMCL1 /// GMCL1P1 / RFU, AEBP2 / Fold change vs veh, AEBP2 / RFU, SNHG1 /// SNORD22 /// SNORD25 /// SNORD26 /// SNORD27 /// SNORD28 /// SNORD29 /// SNORD31 / Fold change vs veh, SNHG1 /// SNORD22 /// SNORD25 /// SNORD26 /// SNORD27 /// SNORD28 /// SNORD29 /// SNORD31 / Fold change (Aza/veh), C12orf56 (ProbeSet 11735607_a_at) / Fold change (ACY-1035/veh), C12orf56 (ProbeSet 11735607_a_at) / Fold change (Aza/veh), FGFR1OP (ProbeSet 11751329_s_at) / Fold change (ACY-1035/veh), FGFR1OP (ProbeSet 11751329_s_at) / Fold change (Aza/veh), VPS36 (ProbeSet 11739960_a_at) / Fold change (ACY-1035/veh), VPS36 (ProbeSet 11739960_a_at) / RFU SYPL1 (11715823_x_at) / Fold change /veh SYPL1 (11715823_x_at) / RFU IGFBP7 (11715501_s_at) / Fold change /veh IGFBP7 (11715501_s_at) / RFU REEP3 (11722064_at) / Fold change /veh REEP3 (11722064_at) / RFU IGLL1 (11728026_x_at) / Fold change /veh IGLL1 (11728026_x_at): dose or concentration left out as unconfirmed
Settings: ProbeSet 11741123_x_at; LIST D

Nc1ncn([C@@H]2O[C@H](CO)[C@@H](O)[C@H]2O)c(=O)n1 [azacitidine]
RFU, ADK: 188.85 RFU
